The source made the active and inactive calls. The calls are words filed in the database; no cut-off is given here.
What was measured:
RAW264.7 [1] = assay: Anti-inflammatory activity against LPS-Induced mouse RAW264.7 cells assessed as inhibition of COX-2 expression level at 5 uM incubated for 24 hrs by ELISA method relative to control; assay type: functional
RAW264.7 [2] = assay: Anti-inflammatory activity against LPS-induced mouse RAW264.7 cells assessed as inhibition of COX-1 expression at 5 uM incubated for 24 hrs by ELISA method relative to control; assay type: functional
RAW264.7 [3] = assay: Anti-inflammatory activity against LPS-Induced mouse RAW264.7 cells assessed as inhibition of Nitric oxide release at 10 uM measured after 18 hrs by Griess reagent assay relative to control; assay type: functional; set-up: Activity: scale not given: the % may be the effect or the level left; settings: for inhibition at 10 µM: Mus musculus, RAW264.7
RAW264.7 [4] = assay: Anti-inflammatory activity against LPS-induced mouse RAW264.7 cells assessed as inhibition of 5-LOX protein expression at 5 uM incubated for 24 hrs by ELISA method relative to control; assay type: functional
RAW264.7 [5] = assay: Anti-inflammatory activity against LPS-Induced mouse RAW264.7 cells assessed as inhibition of COX-1 expression level at 5 uM incubated for 24 hrs by ELISA method relative to control; assay type: functional
RAW264.7 [6] = assay: Anti-inflammatory activity against LPS-Induced mouse RAW264.7 cells assessed as inhibition of COX-2 at 5 uM incubated for 24 hrs by ELISA method relative to control; assay type: functional
RAW264.7 [7] = assay: Anti-inflammatory activity against LPS-induced mouse RAW264.7 cells assessed as downregulation of COX-1 protein expression level incubated for 24 hrs by ELISA method; assay type: functional, cell-based
[8] = Cytotoxicity against mouse RAW264.7 cells assessed as cell survival at 5 uM preincubated for 4 hrs followed by compound addition and measured after 20 hrs by MTT assay relative to control; assay type: toxicity, cell-based; settings: read-out: Survival
Mus musculus [9] = assay: Anti-inflammatory activity against female Kunming mouse model xylene-induced auricle edema assessed as inhibition of ear swelling at 50 mg/kg, ip measured after 1 hr relative to control; assay type: functional; set-up: scale not given: the % may be the effect or the level left
Mus musculus [10] = assay: Anti-inflammatory activity against female Kunming mouse model xylene-induced auricle edema assessed as inhibition rate of ear swelling measured after 1 hr; assay type: functional, organism-based
RAW264.7 [11] = assay: Anti-inflammatory activity against LPS-Induced mouse RAW264.7 cells assessed as inhibition of TXB-2 release at 5 uM incubated for 24 hrs by LT determination assay relative to control; assay type: functional; set-up: scale not given: the % may be the effect or the level left
RAW264.7 [12] = assay: Anti-inflammatory activity against LPS-Induced mouse RAW264.7 cells assessed as inhibition of Nitric oxide release at 1 uM measured after 18 hrs by Griess reagent assay relative to control; assay type: functional
RAW264.7 [13] = assay: Anti-inflammatory activity against LPS-Induced mouse RAW264.7 cells assessed as inhibition in COX-2 expression at 1uM incubated for 24 hrs by ELISA method; assay type: functional, cell-based
RAW264.7 [14] = assay: Anti-inflammatory activity against LPS-Induced mouse RAW264.7 cells assessed as inhibition of LT release at 1 uM incubated for 24 hrs by LT determination assay relative to control; assay type: functional
Mus musculus [15] = assay: Anti-inflammatory activity against female Kunming mouse model xylene-induced auricle edema assessed as inhibition of ear swelling at 100 mg/kg, IP measured after 1 hr relative to control; assay type: functional; set-up: scale not given: the % may be the effect or the level left
RAW264.7 [16] = assay: Anti-inflammatory activity against LPS-Induced mouse RAW264.7 cells assessed as inhibition of LT release at 5 uM incubated for 24 hrs by LT determination assay relative to control; assay type: functional
RAW264.7 [17] = assay: Anti-inflammatory activity against LPS-Induced mouse RAW264.7 cells assessed as increase inhibition of PGE2 production measured after 24 hrs by ELISA method; assay type: functional, cell-based
RAW264.7 [18] = assay: Anti-inflammatory activity against LPS-Induced mouse RAW264.7 cells assessed as inhibition of PGE2 production at 1uM measured after 24 hrs by ELISA method; assay type: functional
RAW264.7 [19] = assay: Anti-inflammatory activity against LPS-Induced mouse RAW264.7 cells assessed as inhibition of TXB-2 release at 1 uM incubated for 24 hrs by LT determination assay relative to control; assay type: functional
RAW264.7 [20] = assay: Anti-inflammatory activity against LPS-Induced mouse RAW264.7 cells assessed as inhibition of Nitric oxide release at 1 uM measured after 18 hrs by Griess reagent assay; assay type: functional, cell-based
RAW264.7 [21] = assay: Anti-inflammatory activity against LPS-Induced mouse RAW264.7 cells assessed as inhibition of PGF1 production at 5 uM incubated for 24 hrs by ELISA method relative to control; assay type: functional
RAW264.7 [22] = assay: Anti-inflammatory activity against LPS-Induced mouse RAW264.7 cells assessed as inhibition of PGE2 production at 5 uM measured after 24 hrs by ELISA method; assay type: functional, cell-based
RAW264.7 [23] = assay: Anti-inflammatory activity against LPS-Induced mouse RAW264.7 cells assessed as inhibition of PGF1 production at 1 uM incubated for 24 hrs by ELISA method relative to control; assay type: functional
RAW264.7 [24] = assay: Anti-inflammatory activity against LPS-Induced mouse RAW264.7 cells assessed as inhibition of PGE2 production at 10 uM measured after 24 hrs by ELISA method; assay type: functional
RAW264.7 [25] = assay: Antiproliferative activity against mouse RAW264.7 cells assessed as tumor growth inhibition at 10 uM preincubated for 4 hrs followed by compound addition and measured after 20 hrs by MTT assay; assay type: functional, cell-based
[26] = Cytotoxicity against mouse RAW264.7 cells assessed as cell survival at 10 uM preincubated for 4 hrs followed by compound addition and measured after 20 hrs by MTT assay relative to control; assay type: toxicity, cell-based; settings: read-out: Survival

**Q.** Which inhibition at 5 µM (RAW264.7 [1]) does the source give for `COC(=O)C#CC1(O)C(=O)N(Cc2cccc3ccccc23)c2cc(Cl)ccc21` (configuration not stated) here?
**A.** 42.6%

**Q.** And the inhibition at 5 µM (RAW264.7 [2])?
**A.** 35.3%

**Q.** And the inhibition at 10 µM (RAW264.7 [3])?
**A.** 102%

**Q.** What about the inhibition at 5 µM (RAW264.7 [4]) of the same compound?
**A.** 71.2%

**Q.** And the inhibition at 5 µM (RAW264.7 [5])?
**A.** 35.3%

**Q.** And the inhibition at 5 µM (RAW264.7 [6])?
**A.** 42.6%

**Q.** What about the inhibition (RAW264.7 [7]) of the same compound?
**A.** Active

**Q.** Which results are given for `COC(=O)C#CC1(O)C(=O)N(Cc2ccccc2)c2cc(Cl)ccc21` (configuration not stated)?
**A.** viability at 20 h, 5 µM [8]: 57.9%; Activity (Mus musculus [9]): 78.14%; inhibition at 5 µM (RAW264.7 [1]): 38.8%; Activity (Mus musculus [10]): Dose-dependent-effect; Activity (RAW264.7 [11]): 21.14%; inhibition at 1 µM (RAW264.7 [12]): 50%; inhibition (RAW264.7 [13]): Active; inhibition at 10 µM (RAW264.7 [3]): 101%; inhibition at 1 µM (RAW264.7 [14]): 25.9%; Activity (Mus musculus [15]): 85.43%; inhibition at 5 µM (RAW264.7 [16]): 11%; inhibition (RAW264.7 [17]): Dose-dependent-effect; inhibition at 1 µM (RAW264.7 [18]): 58%; inhibition at 1 µM (RAW264.7 [19]): 25.4%; inhibition (RAW264.7 [20]): Active; inhibition at 5 µM (RAW264.7 [21]): 16.6%; inhibition (RAW264.7 [22]): Active; inhibition at 1 µM (RAW264.7 [23]): 16%; inhibition at 10 µM (RAW264.7 [24]): 94.5%; inhibition at 5 µM (RAW264.7 [6]): 38.8%; Activity (RAW264.7 [25]): Active

**Q.** For `COC(=O)C#CC1(O)C(=O)N(C)c2cccc(Cl)c21` (configuration not stated), which viability at 20 h, 10 µM [26] is on record?
**A.** 86.7%

**Q.** Which viability at 20 h, 10 µM [26] does the source give for `COC(=O)C#CC1(O)C(=O)N(Cc2cccc3ccccc23)c2ccc(Cl)cc21` (configuration not stated) here?
**A.** 99.9%

**Q.** For `COC(=O)C#CC1(O)C(=O)Nc2ccc(C)cc21` (configuration not stated), which Activity (RAW264.7 [3]) is on record?
**A.** 81.68%

**Q.** Which Activity (Mus musculus [15]) does the source give for `Cc1ccc(-c2cc(C(F)(F)F)nn2-c2ccc(S(N)(=O)=O)cc2)cc1` [CELECOXIB] here?
**A.** 93.23%

Source: ChEMBL document CHEMBL6153019, “A series of indole-derived γ-hydroxy propiolate esters as potent anti-inflammatory agents: Design, synthesis, in-vitro and in-vivo biological studies” (Eur J Med Chem, 2024)
